Measured values taken from patent US11684571B2, “Methods of treating eosinophilic esophagitis” (Ellodi Pharmaceuticals, L.P., priority 2016, dated 2023).

Columns and labels:
[1] = oral; cited from earlier work
[2] = Previous PK studies of APT-1011 (food effect, QD vs BID); assay type: in vivo, human; settings: single-dose administration
[3] = in vivo
Method: Incidence of treatment-emergent Adverse Events (AEs), AEs leading to withdrawal, and Serious Adverse Events (SAEs) grouped by system organ class (SOC) were calculated as needed. Clinically significant abnormal values for clinical laboratory, AM cortisol (≤138 nmol/L), urinalysis, vital signs, and electrocardiogram (ECG) findings were measured as needed.
A total of 24 subjects were enrolled and randomized to one of six sequences to receive each of the three treatments over the three periods with a 7-day washout between doses.
C. […] These subjects continued fasting for at least 4 hours post-dose. • Subjects on the “Fed” treatment (Treatment B) began a high-fat breakfast 30 minutes after an overnight fast of at least 10 hours. […] Subjects were administered 6.0 mg of ATP-1011 immediately prior to bedtime (4 hours following the standard meal).
Randomization (Day 1): Subjects were randomized to one of six sequences (See Table 15) to receive a single dose of each treatment over three periods, with a 7-day washout between doses.
Treatment Periods: For each period, subjects were in-patients for 5 days (Days 0-4, Days 7-11, Days 14-18) with PK samples collected over 72 hours following each dose. Subjects were checked-in to the CRU the evening prior to each dosing (Day 0, 7, and 14) and received treatment according to the sequence on which they were randomized on Day 1. […] All meals (AM and 4 hours prior to bedtime) were standardized for all subjects and all periods. Subjects completed these meals within 30 minutes. […] Subjects dosed HS followed the same PK schedule with PK samples scheduled relative to the bedtime dose.
Pharmacokinetics: Derived plasma-PK-parameter descriptive statistics were summarized by treatment. […] Additional comparisons were assessed between HS dosing and Fed and Fasted administration.
The following PK parameters were estimated by noncompartmental methods from plasma samples. Below limit of quantitation concentrations were treated as zero for all PK analyses. All deviations from the scheduled sampling time of 2 minutes or more were taken into consideration for evaluation of the PK parameters.
The trapezoidal rule was used to estimate the area under the curve (linear trapezoidal linear interpolation) and the terminal phase were estimated by maximizing the coefficient of determination estimated from the log-linear regression model. However, disposition parameters were not estimated for individual concentration-time profiles where the terminal log-linear phase cannot be reliably characterized.
Food Effect Analysis: The 90% confidence interval for the exponential of the difference in LSmeans between B (fed) and A (fasted) was calculated for the ln-transformed parameters (Test to Reference ratio of geometric LSmeans).
HS vs Fasted Analysis: The 90% confidence interval for the exponential of the difference in LSmeans between C (HS) and A (fasted) was calculated for the ln-transformed parameters (Test to Reference ratio of geometric LSmeans).
HS vs Fed Analysis: The 90% confidence interval for the exponential of the difference in LSmeans between C (HS) and B (fed) was calculated for the ln-transformed parameters (Test to Reference ratio of geometric LSmeans).
Treatments Administered: Study drug was administered by qualified study staff only in accordance with the procedures described in this protocol. […] All subjects were instructed to take the study drug tablet orally without water or other liquids. […]

- between-subject variability (CV % Geo mean) of FP AUC(0-24h) [2]: > 55%
- AUC0-24, geometric LSmean ([3]; human, 6 mg): 0.367351 ng·h/mL
- AUCinf, geometric LSmean ([3]; human, 6 mg): 0.915302 ng·h/mL
- AUClast, geometric LSmean ([3]; human, 6 mg): 0.789234 ng·h/mL
- Cmax, geometric LSmean ([3]; human, 6 mg): 0.0313 ng/mL
- maximum peak exposure, lower than morning-fast [3]: 19%
Structure (SMILES): CCC(=O)O[C@]1(C(=O)SCF)[C@H](C)C[C@H]2[C@@H]3C[C@H](F)C4=CC(=O)C=C[C@]4(C)[C@@]3(F)[C@@H](O)C[C@@]21C [FP, Fluticasone propionate]
- expected systemic bioavailability [1]: ~1%
